Data: US8247211B2, “Glycopeptide antibiotics” (American Cyanamid Company, priority 2001, dated 2012)
Converted amounts (≈) assume the structure as drawn.

How the values were obtained:
[1] = tested on: Streptococcus pneumoniae (GC 1894), penicillin resistant strain; assay: Acute lethal infection in mice (ED50); assay type: in vivo; conditions: female CD-1 mice, intraperitoneal challenge, intravenous dose 30 min. after infection, 7 day survival ratios
Procedure, shortened: (§1)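 Female CD-1 mice (20 ± 1-2 g) were infected intraperitoneally with enough bacteria, suspended in Trypticase Soy Broth or hog gastric mucin, to kill untreated controls within 24-48 hr. Compound in saline or 5% dextrose was given intravenously 30 min after infection. ED50 came from pooled 7-day survival over 3 tests.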

[2] = tested on: Staphylococcus aureus-SMITH (GC 4543); assay: Acute lethal infection in mice (ED50); assay type: in vivo; conditions: female CD-1 mice, intraperitoneal challenge, intravenous dose 30 min. after infection, 7 day survival ratios
Procedure, shortened: as §1

[3] = tested on: Enterococcus faecalis (GC 6189), vancomycin resistant strain; assay: Acute lethal infection in mice (ED50); assay type: in vivo; conditions: female CD-1 mice, intraperitoneal challenge, intravenous dose 30 min. after infection, 7 day survival ratios
Procedure, shortened: as §1

Escherichia coli = assay: In vitro antibacterial evaluation: minimum inhibitory concentration (MIC), broth dilution method; assay type: cell-based; conditions: 5×10^5 CFU/mL, 18 hours at 35° C.
Procedure, shortened: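 NCCLS M7-A2 broth dilution; Muller-Hinton II […]; 5×10^5 CFU/mL; 64-0.06 μg/mL. MIC = lowest concentration with no growth.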

Enterococcus sp. = assay: as above; assay type: cell-based; conditions: broth dilution, 5×10^5 CFU/mL, 18 hours at 35° C.
Procedure, shortened: (§2)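 Values are minimum inhibitory concentrations, meaning the smallest antibiotic concentration that stops growth of the organism. They come from broth dilution in Muller-Hinton II […] per NCCLS guidance (M7-A2), using 5×10^5 CFU/mL and concentrations from 64 to 0.06 μg/mL.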

Streptococcus sp. = assay: as above; assay type: cell-based; conditions: broth dilution, 5×10^5 CFU/mL, 18 hours at 35° C.
Procedure, shortened: as §2

Staphylococcus sp. = assay: as above; assay type: cell-based; conditions: for MIC Staphylococcus aureus (ATCC 29213): strain ATCC 29213; for MIC Staphylococcus aureus (GC 1131): strain GC 1131; for MIC Staphylococcus aureus (GC 4541): strain GC 4541; for MIC Staphylococcus aureus (GC 4542): strain GC 4542; for MIC Staphylococcus aureus-SMITH (GC 4543): strain GC 4543; for MIC Staphylococcus aureus (GC 4544): strain GC 4544; for MIC Staphylococcus aureus (GC 4545): strain GC 4545; for MIC Staphylococcus haemolyticus (GC 4546): strain GC 4546; for MIC Coagulase Negative Staphylococcus (GC 4547): strain GC 4547; for MIC Coagulase Negative Staphylococcus (GC 4548): strain GC 4548; for MIC Coagulase Negative Staphylococcus (GC 4549): strain GC 4549; for MIC Coagulase Negative Staphylococcus (GC 4551): strain GC 4551; for MIC Coagulase Negative Staphylococcus (GC 6257): strain GC 6257; for MIC Coagulase Negative Staphylococcus (ID-3941): strain ID-3941
Procedure, shortened: as §2

[4] = broth dilution, 18 hours at 35° C.

SMILES: CC(c1ccccc1)C1NC(=O)CNC(=O)C(CO)NC(=O)C(C(O)C2CNC(=N)N2C2OC(CO)C(O)C(O)C2O)NC(=O)C(C(O)C2CNC(=N)N2)NC(=O)C(Cc2ccc(OC3OC(CO)C(OC4OC5COC(C6CCCCC6)OC5C(O)C4O)C(O)C3O)cc2)NC1=O (centres unmarked) [Example 112]
- median effective dose (ED50), Streptococcus pneumoniae (GC 1894) [1]: 0.02 mg/kg
- median effective dose (ED50), Staphylococcus aureus-SMITH (GC 4543) [2]: 0.07-0.08
- median effective dose (ED50), Enterococcus faecalis (GC 6189) [3]: 0.19-0.28
- MIC Escherichia coli (ATCC 25922) (Escherichia coli): 32 mg/L (≈ 23 µM)
- MIC Escherichia coli (GC 4559) (Escherichia coli): >16 mg/L
- MIC Escherichia coli (GC 4560) (Escherichia coli): 1 mg/L (≈ 0.72 µM)
- MIC Enterococccus avium (GC 4558) (Enterococcus sp.): 2 mg/L (≈ 1.44 µM)
- MIC Enterococccus faecalis (ATCC 29212) (Enterococcus sp.): 2 mg/L (≈ 1.44 µM)
- MIC Enterococccus faecalis (GC 2691) (Enterococcus sp.): 2 mg/L (≈ 1.44 µM)
- MIC Enterococccus faecalis (GC 3059) (Enterococcus sp.): 2 mg/L (≈ 1.44 µM)
- MIC Enterococccus faecalis (GC 4552) (Enterococcus sp.): 2 mg/L (≈ 1.44 µM)
- MIC Enterococccus faecalis (GC 4553) (Enterococcus sp.): 2 to 4 mg/L
- MIC Enterococccus faecalis (GC 4554) (Enterococcus sp.): 2 mg/L (≈ 1.44 µM)
- MIC Enterococccus faecalis (GC 6189) (Enterococcus sp.): 2 mg/L (≈ 1.44 µM)
- MIC Enterococccus faecium (GC 2243) (Enterococcus sp.): 1 to 2 mg/L
- MIC Enterococccus faecium (GC 4556) (Enterococcus sp.): 2 mg/L (≈ 1.44 µM)
- MIC Enterococccus faecium (GC 4557) (Enterococcus sp.): 0.5 to 2 mg/L
- MIC Enterococcus faecalis (GC 2242) (Enterococcus sp.): 1 to 2 mg/L
- MIC Streptococcus agalactiae (GC 4564) (Streptococcus sp.): <0.12 mg/L
- MIC Streptococcus pneumoniae (GC 4565) (Streptococcus sp.): <0.12 mg/L
- MIC Streptococcus pyogenes (GC 4563) (Streptococcus sp.): <0.12 mg/L
- MIC Streptococcus pyogenes (ID-3187) (Streptococcus sp.): 0.5 mg/L (≈ 0.36 µM)
- MIC Staphylococcus aureus (ATCC 29213) (Staphylococcus sp.): 1 mg/L (≈ 0.72 µM)
- MIC Staphylococcus aureus (ATCC 29213) (Staphylococcus sp.; [4]): 1 mg/L (≈ 0.72 µM)
- MIC Staphylococcus aureus (GC 1131) (Staphylococcus sp.): 0.5 to 1 mg/L
- MIC Staphylococcus aureus (GC 1131) (Staphylococcus sp.; [4]): 0.5 to 1 mg/L
- MIC Staphylococcus aureus (GC 4541) (Staphylococcus sp.): 1 mg/L (≈ 0.72 µM)
- MIC Staphylococcus aureus (GC 4541) (Staphylococcus sp.; [4]): 1 mg/L (≈ 0.72 µM)
- MIC Staphylococcus aureus (GC 4542) (Staphylococcus sp.): 1 mg/L (≈ 0.72 µM)
- MIC Staphylococcus aureus (GC 4542) (Staphylococcus sp.; [4]): 1 mg/L (≈ 0.72 µM)
- MIC Staphylococcus aureus-SMITH (GC 4543) (Staphylococcus sp.; 18 hours at 35° C.): 0.5 to 1 mg/L
- MIC Staphylococcus aureus-SMITH (GC 4543) (Staphylococcus sp.; [4]): 0.5 to 1 mg/L
- MIC Staphylococcus aureus (GC 4544) (Staphylococcus sp.): 0.5 to 2 mg/L
- MIC Staphylococcus aureus (GC 4544) (Staphylococcus sp.; [4]): 0.5 to 2 mg/L
- MIC Staphylococcus aureus (GC 4545) (Staphylococcus sp.): 1 to 2 mg/L
- MIC Staphylococcus aureus (GC 4545) (Staphylococcus sp.; [4]): 1 to 2 mg/L
- MIC Staphylococcus haemolyticus (GC 4546) (Staphylococcus sp.): 1 mg/L (≈ 0.72 µM)
- MIC Staphylococcus haemolyticus (GC 4546) (Staphylococcus sp.; [4]): 1 mg/L (≈ 0.72 µM)
- MIC Coagulase Negative Staphylococcus (GC 4547) (Staphylococcus sp.): 0.5 to 1 mg/L
- MIC Coagulase Negative Staphylococcus (GC 4547) (Staphylococcus sp.; [4]): 0.5 to 1 mg/L
- MIC Coagulase Negative Staphylococcus (GC 4548) (Staphylococcus sp.): 0.5 to 1 mg/L
- MIC Coagulase Negative Staphylococcus (GC 4548) (Staphylococcus sp.; [4]): 0.5 to 1 mg/L
- MIC Coagulase Negative Staphylococcus (GC 4549) (Staphylococcus sp.): 0.5 to 1 mg/L
- MIC Coagulase Negative Staphylococcus (GC 4549) (Staphylococcus sp.; [4]): 0.5 to 1 mg/L
- MIC Coagulase Negative Staphylococcus (GC 4551) (Staphylococcus sp.): 0.5 to 1 mg/L
- MIC Coagulase Negative Staphylococcus (GC 4551) (Staphylococcus sp.; [4]): 0.5 to 1 mg/L
- MIC Coagulase Negative Staphylococcus (GC 6257) (Staphylococcus sp.): 1 mg/L (≈ 0.72 µM)
- MIC Coagulase Negative Staphylococcus (GC 6257) (Staphylococcus sp.; [4]): 1 mg/L (≈ 0.72 µM)
- MIC Coagulase Negative Staphylococcus (ID-3941) (Staphylococcus sp.): 0.5 mg/L (≈ 0.36 µM)
- MIC Coagulase Negative Staphylococcus (ID-3941) (Staphylococcus sp.; [4]): 0.5 mg/L (≈ 0.36 µM)
